Legend:
[1] = tested on: Bovine aortic endothelial cells; assay: Secretion of [35S]-labelled sulphated GAG into culture medium of BAE cells; assay type: cell-based; details: for Mean CSGAG (%) of total secreted sulphated GAG / Mean HSGAG (%) of total secreted sulphated GAG: BAE cell culture media; for Mean CSGAG (%) of total secreted sulphated GAG: CSase ABC degradation; for Mean HSGAG (%) of total secreted sulphated GAG: Heparitinase II degradation; for Maximum stimulation of HSGAG secretion (fold over the base level): at 10 μM odiparcil
Experimental: GAG secreted into cell culture supernatant were analysed in Bovine aortic endothelial cells (ECACC 92010601), cultured in 6-well plates and incubated for 24 h in the presence of [^35S] sodium sulphate ([…]; 0.1% final concentration of DMSO). The culture supernatants were recovered and the unincorporated [^35S] was then removed by gel filtration on Sephadex G25 columns, the GAG being eluted in the column exclusion fraction (V0). A solution of cetylpyridinium chloride (0.1% final concentration) was added to the eluent in order to precipitate the GAG for 24 h at room temperature. The samples were then centrifuged and the supernatant was removed. The precipitate obtained was re-suspended in 2 M magnesium chloride and the GAG were precipitated with 5 volumes of 95% ethanol. After centrifugation, the alcoholic precipitates were re-suspended in 0.9% sodium chloride and then the radioactivity was measured.
In order to sort the GAG produced in the supernatants from cells in culture, the re-suspended alcoholic precipitates were treated with chondroitinase ABC (Proteus vulgaris) in a proportion of 0.5 mU/μL, for 3 h at 37°C. After inactivation of the enzyme for 3 min at 100°C, the undigested GAG were precipitated with 5 volumes of 95% ethanol, overnight at 4°C. After centrifugation, the alcoholic precipitates were re-suspended in 0.9% sodium chloride and then the radioactivity was measured on an aliquot fraction after addition of scintillation fluid in counting vials. GAG of heparan sulphate type were treated with heparinase II (Flavobacterium heparinum) in a proportion of 4 mU/μl, for 12 h at 30°C. After inactivation of the enzyme for 3 min at 100°C, the undigested GAG were precipitated with 5 volumes of 95% ethanol, overnight at 4°C. After centrifugation, the alcoholic precipitates were re-suspended in 0.9% sodium chloride and then the radioactivity was measured on an aliquot fraction after addition of scintillation fluid in counting vials.

[2] = tested on: MPS VI patient fibroblasts GM00538; assay: Number of cultured cells (viability) during odiparcil treatment; assay type: cell-based, human; details: different odiparcil concentrations, growing and confluent conditions
Experimental: Primary skin fibroblasts from MPS VI patients GM00538 and GM02572 were obtained from the NIGMS Human Genetic Cell Repository at the Coriell Institute for Medical Research. Cell culturing was done according to the conditions provided by the Coriell Institute. For evaluation of the effect of odiparcil, cells were seeded in 96 well imaging plates (Falcon Cat N 353219) and two types of treatment were evaluated: i) prophylactic conditions—cells were treated with odiparcil before reaching confluence, 24 hours after plating; and ii) curative conditions—cells were treated with odiparcil after reaching confluence (10 days culturing). Cells were treated by odiparcil added to the culture media. This was done by replacing the initial culture media by media containing 0.1% DMSO with or without odiparcil (at 0.01, 0.03, 0.1, 0.3, 1, 3 and 10 μM). For treatment, the cells were incubated for 72 hours at 37°C, 5% CO2. All experimental conditions were performed in triplicate, i.e., 3 wells/test condition.
After odiparcil treatment as described above, culture media were removed to be used for dimethylmethylene blue (DMMB) assay and the cells were fixed in PFA 4%. Immunofluorescent staining was done following standard protocol comprising permeabilization with 0.1% Triton X 100, blocking with 2% NGS, staining with primary antibody and staining with secondary antibody and Hoechst (for nuclei visualization). […]

[3] = BAE cells, 24 h, [35S] sulphate

SMILES: Cc1cc(=O)oc2cc(O[C@@H]3SC[C@@H](O)[C@H](O)[C@H]3O)ccc12 [Odiparcil, 4-methyl-7-(5-thio-β-D-xylopyranosyloxy)-2 H-chromen-2-one]
- Mean CSGAG (%) of total secreted sulphated GAG ([1]; odiparcil 0.1 µM): 78.5%
- Mean HSGAG (%) of total secreted sulphated GAG ([1]; odiparcil 0.1 µM): 34.5%
- Mean CSGAG (%) of total secreted sulphated GAG ([1]; odiparcil 0.3 µM): 83.5%
- Mean HSGAG (%) of total secreted sulphated GAG ([1]; odiparcil 0.3 µM): 28.0%
- Mean CSGAG (%) of total secreted sulphated GAG ([1]; odiparcil 1 µM): 83.9%
- Mean HSGAG (%) of total secreted sulphated GAG ([1]; odiparcil 1 µM): 16.0%
- Mean CSGAG (%) of total secreted sulphated GAG ([1]; odiparcil 3 µM): 82.5%
- Mean HSGAG (%) of total secreted sulphated GAG ([1]; odiparcil 3 µM): 15.0%
- Mean CSGAG (%) of total secreted sulphated GAG ([1]; odiparcil 10 µM): 73.5%
- Mean HSGAG (%) of total secreted sulphated GAG ([1]; odiparcil 10 µM): 19.5%
- Maximum CS-like GAGs (fold stimulation over the base level) [1, 3]: 12.2 fold
- Maximum stimulation of total GAG secretion (fold over the base level) ([1]; BAE cells, 24 h, [35S] sulphate, achieved with 3 μM odiparcil): 10.7 fold
- Maximum stimulation of HSGAG secretion (fold over the base level) [1, 3]: 4.92 fold
- Maximum stimulation of HSGAG secretion (fold over the base level) ([1]; BAE cells, 24 h, [35S] sulphate, listed as odiparcil): 4.9 fold
- Effect on viability of the cells (number of cells) [2]: no effect on viability of the cells

— paper PMC7228089, “Odiparcil, a potential glycosaminoglycans clearance therapy in mucopolysaccharidosis VI—Evidence from in vitro and in vivo models” (PLoS ONE, 2020)
